From PubChem BioAssay AID651934 (Southern Research Specialized Biocontainment Screening …, 2012)
Active and inactive are the calls of the source. How the calls were made is not given here.

How the values were obtained:
[1] = Chikungunya virus CPE inhibitors, dose response, cell-based, secondary assay, set 3 (AID 651934); conditions: Chikungunya virus infected cells, CPE inhibition
[2] = tested on: Chikungunya virus infected cells, CPE inhibition; experiment: as above

Row | SMILES | inhibition ([1]; at 50 µM (top of the series)) | inhibition ([1]; at 25 µM (top of the series)) | other results
1 | O=c1nc(Nc2ccc(CCc3ccccc3)cc2)sc2ncccc12 | 44% (inactive) | – | –
2 | CCN1CCN(CC2Nc3ccc([N+](=O)[O-])cc3C(=O)N2c2ccccc2F)CC1 (centres undefined) | – | -0.9% (inactive) | –
3 | CCN1CCN(Cc2nc3ccc(C#N)cc3c(=O)n2-c2ccccc2)CC1 | – | -0.5% (inactive) | –
4 | O=C1CN(Cc2nc3ccc([N+](=O)[O-])cc3c(=O)n2-c2ccccc2F)CCN1 | 1.2% (inactive) | – | –
5 | COc1ccc(NC(=O)c2cc([N+](=O)[O-])ccc2N=C2CN(C)CCN2C)cc1 | – | – | inhibition ([1]; at 0.625 µM (top of the series)): 0.6% (inactive)
6 | O=c1nc(Nc2ccccc2OCc2ccccc2)sc2ncccc12 | – | -1% (inactive) | –
7 | CCN1CCN(Cc2nc3ccc([N+](=O)[O-])cc3c(=O)n2-c2ccccc2)CC1 | – | 1.8% (inactive) | –
8 | COc1ccc(Nc2nc(=O)c3cccnc3s2)cc1 | -5.2% (inactive) | – | –
9 | CN1CCN(C)C(=Nc2cc(Cl)c(C#N)cc2C(=O)Nc2ccccc2)C1 | 2.9% (inactive) | – | –
10 | O=c1c2cc([N+](=O)[O-])ccc2nc(CN2CCCNCC2)n1-c1ccccc1 | 4.1% (inactive) | – | –
11 | CCN1CCN(Cc2nc3ccc(S(=O)(=O)O)cc3c(=O)n2-c2ccccc2)CC1 | – | -0.2% (inactive) | –
12 | CN1CCN(C)C(=Nc2ccc(C#N)cc2C(=O)Nc2cccc(F)c2)C1 | 3.5% (inactive) | – | –
13 | CN1CCN(C)C(=Nc2ccc([N+](=O)[O-])cc2C(=O)Nc2ccccc2)C1 | – | -1.6% (inactive) | –
14 | Cc1cccc(C)c1Nc1nc(=O)c2cccnc2s1 | – | -0.7% (inactive) | –
15 | CCN1CCN(c2nc3ccc([N+](=O)[O-])cc3c(=O)n2-c2ccccc2)CC1 | – | -1.4% (inactive) | –
16 | CNCCCN(C)Cc1nc2ccc([N+](=O)[O-])cc2c(=O)n1-c1ccccc1 | 0.8% (inactive) | – | –
17 | O=c1nc(Nc2ccc(F)cc2)sc2ncccc12 | – | 0.9% (inactive) | –
18 | O=c1nc(Nc2ccc(OCc3ccccc3)cc2)sc2ncc(F)cc12 | – | – | IC50 [2]: 3650 nM
19 | CNCCN(C)Cc1nc2ccc(C#N)cc2c(=O)n1-c1ccccc1F | 6.3% (inactive) | – | –
20 | CCN1CCN(Cc2nc3ccc(-c4nn[nH]n4)cc3c(=O)n2-c2ccccc2)CC1 | 0.6% (inactive) | – | –
21 | O=c1nc(Nc2ccc(OCc3ccccc3)cc2)sc2ncccc12 | – | – | IC50 [2]: 1060 nM
22 | O=c1nc(Nc2ccc(OCc3ccccc3)cc2)sc2ncc([N+](=O)[O-])cc12 | – | -1% (inactive) | –
23 | CCN(CC)c1nc(=O)c2cccnc2s1 | -5.8% (inactive) | – | –
24 | O=c1nc(NC2CCNCC2)sc2ncccc12 | – | -0.4% (inactive) | –
25 | CCN1CCN(C)CC1=Nc1ccc([N+](=O)[O-])cc1C(=O)Nc1ccccc1 | 1.7% (inactive) | – | –
26 | CCN1CCN(Cc2nc3ccc([N+](=O)[O-])cc3c(=O)n2Cc2ccccc2)CC1 | 5.3% (inactive) | – | –
27 | O=c1nc(N2CCN(Cc3ccccc3)CC2)sc2ncccc12 | – | 1.8% (inactive) | –
28 | CCN1CCN(Cc2nc3ccc([N+](=O)[O-])cc3c(=O)n2-c2ccccc2F)CC1 | -3.4% (inactive) | – | –
29 | CN1CCN(C)C(=Nc2ccc(F)cc2C(=O)Nc2ccccc2)C1 | 2.2% (inactive) | – | –
